Measurements: patent US20060183803A1, “L-aspartic acid for the treatment of assorted health problems” (Instituto del Metabolismo Celular, S.L., priority 2005, published 2006)

Legend:
[1] = Clinical trial in type-1 and type-2 diabetes patients; type: in vivo, human
Text: There is, in principle, no special protocol for patients suffering from diabetes (both types), which is different from the general one described above. Type-2 diabetes is usually associated with overweight and/or excess of fat in the body, so its protocol should not differ substantially from the general one presented above. With regard to type-I diabetes, since this treatment allows cells to consume less glucose, as it enhances their capacity to consume fat, it can reduce one's insulin dependence.
Diabetic patients were told to take their values of blood glucose regularly (three or four times a day during the first months) until they achieved good blood glucose values. During the treatment, when it was seen that blood glucose levels were decreasing, the patients were instructed to reduce the doses of drugs or insulin, until removing them completely, to avoid hypoglycemia.
Our clinical trails involved a group of 200 patients, […]. The patients were divided into four groups: (i) Type-2 diabetes patients who had been recently diagnosed and were not yet taking any oral drugs or insulin treatments, (ii) Type-2 diabetes patients who had been taking oral drugs (usually sulphonylurea derivatives) for up to several years, (iii) Type-2 diabetes patients who were suffering for many years, and had started their treatment with oral drugs and, after several years, progressed to insulin injections, which were eventually being supplemented with oral drugs, and (iv) Type-1 diabetes patients, all of them under insulin treatment. Most of these patients were also suffering from other related health problems (e.g., overweight or obesity, hypertension, sexual potency problems).
The basic treatment guidelines for these diabetes patients were essentially the same as that which was indicated above for our obesity and overweight patients (i.e., four daily takings of 1-3 grams of L-aspartic acid and the elimination of starches from one's diet).

[2] = Clinical trial in patients suffering from hypertension; type: in vivo, human
Text: Clinical trials for 250 patients suffering from hypertension (156 men and 94 women, with ages between 19 and 70 years) are reported below.
A summary of our clinical results are shown in Table 3 for average daily L-aspartic acid consumptions of 12 g/day (four daily 3 g doses).

[3] = Migraines, headaches and menstrual pains reported by patients under treatment; type: in vivo, human; conditions: improvement in first or second month, in some cases several months
[4] = Clinical trial in non-diabetic patients with blood cholesterol excess; type: in vivo, human; conditions: more than 200 non-diabetic patients, four daily takings of 1-3 grams
Text: These clinical trials included a group of more than 200 non-diabetic patients with blood cholesterol excesses. The basic treatment (i.e., four daily […] of 1-3 grams of L-aspartic acid and the elimination of starches from one's diet) for these patients was the same as that described above, plus: (i) complete elimination of carbohydrates from the diet, (ii) inclusion of unsaturated and polyunsaturated fat in all meals, and (iii) inclusion in some meals of cholesterol.

[5] = Patients with high blood uric acid levels under treatment; type: in vivo, human; conditions: sixty patients
Method: Sixty patients participating in this program had high blood uric acid levels.
Our treatment achieved a significant decrease in the uric acid levels of these patients: from initial levels of between 7.1 and 9.4 mg/100 mL to, after usually 2-4 months treatment, normal values.

[6] = Tobacco, caffeine and other drug addictions in patients under treatment; type: in vivo, human
Text: For the treatment of tobacco addiction, we found it advisable to increase the frequency of the intake of L-aspartic acid to 10-12 small doses per day in order to control the anxiety to smoke.
In our clinical trials, some of our patients were addicted to some soft drugs like coffee (caffeine), tobacco (nicotine), Prozac (fluoxetin), Trankimazin (alprazolam), Tranxilium (di-potasium chloride-acetate). In general, they were able to reduce their consumption of these materials while undergoing our recommended treatments. […] In tobacco release addiction programs, some small supplementary doses (0.5-1.0 g. every 30-45 minutes) may be necessary during the day to stop the patient's anxiety.
Smoking patients who expressed a desire to stop were advised to prepare a small bottle of water (or even fruit juice) with some small spoonfuls of L-aspartic acid, and to drink some small swigs of this throughout the day to control their anxiety levels.

[7] = Sexual potency problems of male patients under treatment; type: in vivo, human; conditions: after 2-3 months of treatment
Text: A number of the male patients in our trails initially complained of erectile disfunction and other sexual performance problems. […] These improvements were most significant for those patients who had reported problems of erectile disfunction; with these patients generally reporting improvements in all aspects of their sexual activities, including their sexual appetency and ability to ejaculate.

[8] = Digestion problems of patients under treatment; type: in vivo, human; conditions: more than three hundred patients, after two or three weeks
[9] = Ketosis in patients under treatment
[10] = Clinical trial of L-aspartic acid plus starch-free diet in obesity and overweight

N[C@@H](CC(=O)O)C(=O)O [L-aspartic acid]
reduction of oral drugs and/or insulin injections ([1]; all diabetes patients): able to reduce to some degree their oral drugs and/or insulin injections | glycosylated haemoglobin, cholesterol, tryglycerides and total lipids in blood analysis ([1]; diabetes patients): drastically reduced | reduction in glycosylated haemoglobin levels ([1]; diabetes patients, over the duration of treatment): ≥ 20% | time to change from insulin injections to oral diabetes drugs ([1]; most type-2 patients receiving insulin injections): 1-2 months | reduction in glycosylated haemoglobin level, single patient ([1]; patient Example 32 in Table 2): 38.05% | onset of improvement in glycemia levels ([1]; two type-2 patients (FIGS. 6 and 7)): clear from the first week of treatment | time to good control of glycemia and discontinuing diabetes medications ([1]; two type-2 patients (FIGS. 6 and 7), diabetes for over 10 years): 1-2 months | reduction in insulin dosages ([1]; type-1 diabetes patients, over periods of 3-12 months): 20-30% | reduction in % body fat ([2]; 250 hypertension patients, 12 g/day): approximately 10% | mean time to attainment of recommended normal blood pressures ([2]; 250 patients, 12 g/day (four daily 3 g doses)): 2.8 months | number of patients reporting migraines, headaches and menstrual pains [3]: significant reduction | blood cholesterol, tryglycerides and total lipid levels [4]: clear improvement | blood uric acid level after treatment ([5]; initial levels between 7.1 and 9.4 mg/100 mL): normal values | treatment time to normal uric acid values ([5]; usually): 2-4 months | daily number of cigarettes smoked ([6]; most tobacco-addicted patients interested in ceasing, after 2-4 weeks): able to reduce their daily numbers of cigarettes smoked | caffeine addiction ([6]; patients consuming 8-12 daily coffees or caffeine soft drinks): drastically eliminate this dependence in only a few weeks | smoking cessation ([6]; patients wishing to stop, small swigs through the day, after several weeks): all of these patients had ceased smoking | erectile disfunction and other sexual performance problems [7]: significant diminishments of their problems | digestion problems [8]: almost total resolution of their digestion problems | occurrence of ketosis under treatment ([9]; all patients under treatment): None of the patients under our treatment have suffered any kind of ketosis | blood ketone bodies in patients with signs of ketosis before treatment ([9]; relatively short time after beginning treatments): achieved normal blood concentration of ketone bodies | safety of prolonged treatment (blood chemical analysis) ([10]; duration as long as one wants): without danger of intoxication | fat burnt per day ([10]; estimated from water unloaded, ratio 14/18): 200 to 600 g | biochemical and hematological parameters in periodic blood analysis ([10]; human, in vivo): consistently showed improvements | side effect from reduced drinking ([10]; in some cases): hard stools and difficulty with bowel movements | weight loss outcome ([10]; more than 1,500 patients, ages 18 to 83): Successful weight losses in all cases | usual weight loss rate ([10]; obesity patients, also printed as 11-13 pounds per month): 5-6 kg per month | carbohydrate abstinence syndrome (weakness, feeling sick) ([10]; on elimination of carbohydrate-rich foods): only during their first two weeks of participation | fat as percentage of body mass after treatment ([10]; person (FIG. 5), 41.1% at start, after 290 days): 23% | body fat mass after treatment ([10]; person (FIG. 5), 53.5 kg of fat at start, after 290 days): 19.1 kg | body weight after treatment ([10]; person (FIG. 5), 130 kg at start, after 290 days of treatment): 83 kg | weight reduction ([10]; person (FIG. 5), after 290 days of treatment): 47 kg | change in percentage of body fat ([10]; versus conventional hypocaloric diets): significant reductions in our patients' percentages of body fat | anxiety, hunger pangs or energy loss during treatment ([10]; without sedative or stimulant drug): no significant anxiety, hunger pangs or energy loss
